In patent US11103603B2, “18F-labeled compounds for PET imaging and uses thereof” (The University of North Carolina at Chapel Hill, priority 2016, dated 2021):

Tests used:
[1] = test system: tryptophan hydroxylase enzyme; experiment: Protein based tryptophan hydroxylase (Tph) assay, fluorescence signal; type: biochemical; details: for substrate quality for Tph: compared with Trp and AMT; for fluorescence signal immediately after adding compound: immediately after adding to reaction system containing tryptophan hydroxylase; for fluorescence signal peak value: peak of time course
Method: (§1) Among the agents synthesized, 5-[^18F]F-AMT was first evaluated in vitro. In order to ensure that 5-[^18F]F-AMT could be used for IDO imaging, cell- and enzyme-based assays were performed. It was first tested whether 5-[^18F]F-AMT is a substrate for the IDO enzyme, and the result compared with that of the natural substrate Trp and a known IDO agent, α-methyl-L-tryptophan (AMT). […] Therefore, a cell-based assay was performed to further evaluate the agents. The uptake of 5-[^18F]F-AMT in IFNγ-treated cells was 3.474±0.6451% compared with 0.50±0.28% in control cells after 1 h incubation (p<0.001) (FIG. 7C). […] The serotonin pathway is a competitive metabolic route for Trp and its derivatives. In the first step Tph adds a hydroxyl group to position 5 of the indole ring. It was evaluated whether the introduction of fluorine at the 5-position would affect metabolism by Tph. As shown in) (FIG. 7B), immediately after adding L-Trp to the reaction system containing the tryptophan hydroxylase enzyme, the fluorescence signal increased from a baseline value of −0.266 to 40.885 and reached a peak value 58.350 at 26 min. Immediately after adding AMT to the reaction system, the fluorescence signal increased from a baseline value of −0.312 to 21.145 and reached a peak value of 36.607 at 34 min.

IDO1 enzyme = IDO1 enzyme (Homo sapiens, UniProt P14902); experiment: IDO1 enzyme assay (substrate test, absorbance at 490 nm); type: biochemical; details: for substrate to IDO1 enzyme: FIG. 7A; for absorbance at 490 nm: reaction containing the compound, results from 3 independent assays, control reaction had no absorbance
Method: (§2) (D) Decay-corrected whole-body small PET images of B16F10 melanoma after 30 min injection of 5-[^18]F-AMT.
as §1

HeLa cells = experiment: Cell uptake of tracer in HeLa cells with or without IFNγ treatment and NLG919; type: cell-based
Method: as §2, §1

B16F10 melanoma = experiment: Small animal PET imaging of B16F10 melanoma tumor xenograft mouse model; type: in vivo; details: 200 μCi injected, image at 30 min
Method: as §2
FIGS. 8A-8B show (A) decay-corrected whole-body small PET images of B16F10 melanoma 0.5 h, 1.4 h, and 20 h after injection of ^124I-AMT; (B) decay-corrected whole-body small PET images of B16F10 melanoma 50 min after injection of ^18F—N-Me-Trp.
A tumor xenograft mouse model was produced with a B16F10 melanoma. 200 μCi of 5-^18F-AMT was injected and a PET image was obtained at 30 min. (FIG. 7D).
To test the effectiveness of therapeutic compounds of the invention, a tumor […] xenograft mouse model was produced with a B16F10 melanoma. 1 (FIG. 8A) or ^18F—N-Me-Trp (FIG. 8B) were injected in the tail vein and PET images obtained.

IDO1 enzyme, sequence (P14902 whole entry, species assumed): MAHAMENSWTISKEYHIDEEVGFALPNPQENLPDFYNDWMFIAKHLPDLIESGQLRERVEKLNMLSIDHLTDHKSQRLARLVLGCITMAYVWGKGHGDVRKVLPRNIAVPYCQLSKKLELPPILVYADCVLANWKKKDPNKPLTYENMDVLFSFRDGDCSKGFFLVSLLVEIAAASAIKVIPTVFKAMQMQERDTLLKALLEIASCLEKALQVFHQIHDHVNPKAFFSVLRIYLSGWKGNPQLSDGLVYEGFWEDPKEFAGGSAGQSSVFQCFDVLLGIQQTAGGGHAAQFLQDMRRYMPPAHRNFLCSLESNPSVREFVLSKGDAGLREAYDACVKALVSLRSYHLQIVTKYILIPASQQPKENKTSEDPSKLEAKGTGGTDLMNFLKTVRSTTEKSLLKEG

Compound	time at which peak fluorescence was reached [1] [min]	substrate quality for Tph [1]	fluorescence signal immediately after adding compound [1]	fluorescence signal peak value [1]	substrate to IDO1 enzyme (IDO1 enzyme)	absorbance at 490 nm (IDO1 enzyme)	increase of HeLa cells uptake after IFN-γ treatment (HeLa cells; HeLa cells, IFN-γ treated vs untreated) [times]	uptake in IFNγ-treated cells incubated with NLG919 (HeLa cells; IFNγ-treated cells + IDO1 inhibitor NLG919) [%]	uptake in IFNγ-treated cells (HeLa cells; IFNγ-treated cells, 1 h incubation) [%]	uptake in control cells (HeLa cells; control cells (no IFNγ), 1 h incubation) [%]	PET image of tumor (B16F10 melanoma)
CC(N)(Cc1c[nH]c2ccc(F)cc12)C(=O)O (stereo not shown) [5-F-AMT]	25	not a good substrate	5.635	8.176	substrates	0.16±0.03					
N[C@@H](Cc1c[nH]c2ccccc12)C(=O)O [L-Trp, L-tryptophan]	26		40.885	58.350	substrates	0.21±0.01					
C[C@](N)(Cc1c[nH]c2ccccc12)C(=O)O [AMT, α-methyl-L-tryptophan]	34		21.145	36.607	substrates	0.19±0.02					
CC(N)(Cc1c[nH]c2ccc([18F])cc12)C(=O)O (stereo not shown) [5-[^18F]F-AMT]		worse substrate					7	0.88±0.12	3.474±0.6451	0.50±0.28	clearly shows the tumor
